PMC9403976, “Elucidating the path to Plasmodium prolyl-tRNA synthetase inhibitors that overcome halofuginone resistance” (Nature Communications, 2022)
Several values for one entry are separate records, joined by “and”; a condition that tells them apart may be missing. Equal entries are not always repeated. Where two headings read alike, the source gives them in different places.

Tests used:
[1] = test system: P. falciparum Dd2-2D4; experiment: P. falciparum asexual blood stage (ABS) growth assay, SYBR Green, 72 h, wild-type parasites; assay type: cell-based, Plasmodium falciparum; settings: Plasmodium falciparum, DD2; SI Fig 16b; values on -log scale; read-out: ABS - Dd2-2D4 (converted)
[2] = molecular target: T1, PfcProRS (Plasmodium falciparum, UniProt Q8I5R7); assay type: binding; settings: for dose-response signal (normalized), SI Fig 8: single replicates
T1 construct: made in house; host or cells: E. coli SoluBL-21
T1 sequence (Q8I5R7 249-746): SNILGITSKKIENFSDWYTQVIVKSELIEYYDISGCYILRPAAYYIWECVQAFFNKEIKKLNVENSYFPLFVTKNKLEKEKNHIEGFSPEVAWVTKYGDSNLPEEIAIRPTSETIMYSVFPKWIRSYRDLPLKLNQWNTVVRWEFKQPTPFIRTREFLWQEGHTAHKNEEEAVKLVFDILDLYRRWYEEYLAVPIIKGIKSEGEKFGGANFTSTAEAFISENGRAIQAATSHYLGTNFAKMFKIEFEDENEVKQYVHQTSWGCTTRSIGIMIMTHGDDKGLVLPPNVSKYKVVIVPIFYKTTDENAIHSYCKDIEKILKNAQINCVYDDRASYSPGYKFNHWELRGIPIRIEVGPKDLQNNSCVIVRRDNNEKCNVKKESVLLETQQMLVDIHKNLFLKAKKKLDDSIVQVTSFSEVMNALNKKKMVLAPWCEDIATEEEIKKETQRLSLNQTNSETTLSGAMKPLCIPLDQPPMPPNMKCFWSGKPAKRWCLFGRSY

[3] = molecular target: HsProRS (Homo sapiens, UniProt P07814); experiment: TR-FRET ligand displacement assay with tracer MAT379 (CoraFluor-1-Halo and anti-His6 antibody formats); assay type: binding; design: made in house; host or cells: E. coli SoluBL-21; settings: for TR-FRET dose-response, normalized signal (SI Fig 11): individual replicates
Sequence of HsProRS (P07814 996-1512): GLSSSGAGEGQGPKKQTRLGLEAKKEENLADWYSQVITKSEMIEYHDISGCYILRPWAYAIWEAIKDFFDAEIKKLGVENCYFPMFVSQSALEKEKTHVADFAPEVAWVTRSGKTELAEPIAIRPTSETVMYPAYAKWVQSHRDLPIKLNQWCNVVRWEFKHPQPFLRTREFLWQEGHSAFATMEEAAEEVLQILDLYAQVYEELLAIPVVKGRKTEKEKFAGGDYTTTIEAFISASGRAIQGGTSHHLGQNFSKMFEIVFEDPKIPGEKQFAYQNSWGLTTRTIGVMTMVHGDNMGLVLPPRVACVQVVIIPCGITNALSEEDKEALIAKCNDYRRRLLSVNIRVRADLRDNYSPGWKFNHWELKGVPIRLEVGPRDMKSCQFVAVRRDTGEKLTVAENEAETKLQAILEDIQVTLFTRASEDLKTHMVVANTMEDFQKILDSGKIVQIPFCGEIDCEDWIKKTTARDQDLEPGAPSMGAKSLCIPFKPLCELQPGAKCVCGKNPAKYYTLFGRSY

Q: Which results are given for `NC1(C(=O)Nc2nccnc2C(=O)NC2Cc3ccccc3C2)CCCCC1` [compound 17]?
A: EC50 [1]: 5.79 µM; dose-response signal (normalized), SI Fig 8 ([2]; Log[inhibitor] (M) -5.000): -2.16E-02 and 3.35E-02 and 3.85E-02; dose-response signal (normalized), SI Fig 8 ([2]; Log[inhibitor] (M) -5.301): 9.18E-02 and 6.95E-02 and 1.07E-01; dose-response signal (normalized), SI Fig 8 ([2]; Log[inhibitor] (M) -5.601): 1.19E-01 and 1.25E-01 and 1.05E-01; dose-response signal (normalized), SI Fig 8 ([2]; Log[inhibitor] (M) -5.904): 2.12E-01 and 2.21E-01 and 2.19E-01; dose-response signal (normalized), SI Fig 8 ([2]; Log[inhibitor] (M) -6.208): 4.81E-01 and 4.00E-01 and 5.13E-01; dose-response signal (normalized), SI Fig 8 ([2]; Log[inhibitor] (M) -6.509): 7.01E-01 and 7.64E-01 and 7.83E-01; dose-response signal (normalized), SI Fig 8 ([2]; Log[inhibitor] (M) -6.796): 9.36E-01 and 8.53E-01 and 9.43E-01; dose-response signal (normalized), SI Fig 8 ([2]; Log[inhibitor] (M) -7.108): 1.01E+00 and 9.81E-01 and 1.06E+00; dose-response signal (normalized), SI Fig 8 ([2]; Log[inhibitor] (M) -7.409): 1.04E+00 and 9.85E-01 and 1.08E+00; dose-response signal (normalized), SI Fig 8 ([2]; Log[inhibitor] (M) -7.710): 9.36E-01 and 1.05E+00 and 9.73E-01; dose-response signal (normalized), SI Fig 8 ([2]; Log[inhibitor] (M) -8.000): 9.16E-01 and 9.94E-01 and 1.09E+00; dose-response signal (normalized), SI Fig 8 ([2]; Log[inhibitor] (M) -8.301): 1.01E+00 and 9.14E-01 and 9.61E-01; dose-response signal (normalized), SI Fig 8 ([2]; Log[inhibitor] (M) -8.602): 9.67E-01 and 1.05E+00 and 9.29E-01; dose-response signal (normalized), SI Fig 8 ([2]; Log[inhibitor] (M) -9.000): 9.54E-01 and 9.96E-01 and 9.84E-01; dose-response signal (normalized), SI Fig 8 ([2]; Log[inhibitor] (M) -9.301): 9.59E-01 and 9.29E-01 and 9.60E-01; PfcProRS -- best Kd ([2]; SI Fig 16a, values on -log scale): 6.883; Kd ([3]; HsProRS (KD [nM]) mean, no added proline/ATP (-)): 4430 nM; Kd ([3]; HsProRS - best Kd, SI Fig 16a, values on -log scale): 25.5 nM; normalized TR-FRET ligand displacement signal, dose-response replicates (SI Fig 6) ([3]; Log[inhibitor] (M) -5.000): 2.29E-01 and 2.88E-01 and 2.34E-01; TR-FRET dose-response, normalized signal (SI Fig 11) ([3]; Log[inhibitor] (M) -5.000): 3.10E-01 and 3.50E-01 and 2.83E-01; normalized TR-FRET ligand displacement signal, dose-response replicates (SI Fig 6) ([3]; Log[inhibitor] (M) -5.301): 4.79E-01 and 4.33E-01 and 5.59E-01; TR-FRET dose-response, normalized signal (SI Fig 11) ([3]; Log[inhibitor] (M) -5.301): 5.37E-01 (2×) and 4.61E-01; normalized TR-FRET ligand displacement signal, dose-response replicates (SI Fig 6) ([3]; Log[inhibitor] (M) -5.601): 7.03E-01 and 7.28E-01 and 7.31E-01; TR-FRET dose-response, normalized signal (SI Fig 11) ([3]; Log[inhibitor] (M) -5.601): 6.81E-01 and 6.32E-01 and 7.28E-01; normalized TR-FRET ligand displacement signal, dose-response replicates (SI Fig 6) ([3]; Log[inhibitor] (M) -5.904): 9.55E-01 and 9.39E-01 and 8.52E-01; TR-FRET dose-response, normalized signal (SI Fig 11) ([3]; Log[inhibitor] (M) -5.904): 7.93E-01 and 8.32E-01 and 8.75E-01; normalized TR-FRET ligand displacement signal, dose-response replicates (SI Fig 6) ([3]; Log[inhibitor] (M) -6.208): 9.44E-01 and 9.23E-01 and 8.86E-01; TR-FRET dose-response, normalized signal (SI Fig 11) ([3]; Log[inhibitor] (M) -6.208): 9.35E-01 and 8.64E-01 and 9.27E-01; normalized TR-FRET ligand displacement signal, dose-response replicates (SI Fig 6) ([3]; Log[inhibitor] (M) -6.509): 9.47E-01 and 9.84E-01 and 9.68E-01; TR-FRET dose-response, normalized signal (SI Fig 11) ([3]; Log[inhibitor] (M) -6.509): 8.93E-01 and 9.27E-01 and 9.36E-01; normalized TR-FRET ligand displacement signal, dose-response replicates (SI Fig 6) ([3]; Log[inhibitor] (M) -6.796): 9.18E-01 and 9.88E-01 and 9.43E-01; TR-FRET dose-response, normalized signal (SI Fig 11) ([3]; Log[inhibitor] (M) -6.796): 9.97E-01 and 9.65E-01 and 9.84E-01; normalized TR-FRET ligand displacement signal, dose-response replicates (SI Fig 6) ([3]; Log[inhibitor] (M) -7.108): 9.90E-01 and 9.75E-01 and 9.07E-01; TR-FRET dose-response, normalized signal (SI Fig 11) ([3]; Log[inhibitor] (M) -7.108): 9.67E-01 and 9.70E-01 and 9.86E-01; normalized TR-FRET ligand displacement signal, dose-response replicates (SI Fig 6) ([3]; Log[inhibitor] (M) -7.409): 1.03E+00 and 1.00E+00 and 1.02E+00; TR-FRET dose-response, normalized signal (SI Fig 11) ([3]; Log[inhibitor] (M) -7.409): 9.20E-01 and 9.49E-01 and 9.94E-01; normalized TR-FRET ligand displacement signal, dose-response replicates (SI Fig 6) ([3]; Log[inhibitor] (M) -7.710): 1.02E+00 and 9.03E-01 and 1.03E+00; TR-FRET dose-response, normalized signal (SI Fig 11) ([3]; Log[inhibitor] (M) -7.710): 9.99E-01 and 9.64E-01 and 1.05E+00; normalized TR-FRET ligand displacement signal, dose-response replicates (SI Fig 6) ([3]; Log[inhibitor] (M) -8.000): 1.01E+00 and 9.27E-01 and 9.75E-01; TR-FRET dose-response, normalized signal (SI Fig 11) ([3]; Log[inhibitor] (M) -8.000): 1.01E+00 and 9.57E-01 and 9.53E-01; normalized TR-FRET ligand displacement signal, dose-response replicates (SI Fig 6) ([3]; Log[inhibitor] (M) -8.301): 1.01E+00 and 1.00E+00 and 1.05E+00; TR-FRET dose-response, normalized signal (SI Fig 11) ([3]; Log[inhibitor] (M) -8.301): 9.70E-01 and 9.81E-01 and 1.01E+00; normalized TR-FRET ligand displacement signal, dose-response replicates (SI Fig 6) ([3]; Log[inhibitor] (M) -8.602): 9.94E-01 and 1.05E+00 and 1.03E+00; TR-FRET dose-response, normalized signal (SI Fig 11) ([3]; Log[inhibitor] (M) -8.602): 9.48E-01 and 9.63E-01 and 9.29E-01; normalized TR-FRET ligand displacement signal, dose-response replicates (SI Fig 6) ([3]; Log[inhibitor] (M) -9.000): 9.41E-01 and 1.01E+00 and 9.67E-01; TR-FRET dose-response, normalized signal (SI Fig 11) ([3]; Log[inhibitor] (M) -9.000): 9.46E-01 and 9.80E-01 and 9.64E-01; normalized TR-FRET ligand displacement signal, dose-response replicates (SI Fig 6) ([3]; Log[inhibitor] (M) -9.301): 1.02E+00 and 9.62E-01 and 8.95E-01; TR-FRET dose-response, normalized signal (SI Fig 11) ([3]; Log[inhibitor] (M) -9.301): 9.77E-01 (2×) and 9.15E-01
